Test system: mRNA
Experiment: mRNA degradation suppressing effect in the cell-free protein synthesis reaction solution (Transdirect insect cell); remaining mRNA detected by agarose electrophoresis and EtBr staining
Format: biochemical, Spodoptera frugiperda
Conditions: for degradation suppressing effect: after 240 minutes
Method: Using Transdirect insect cell (SHIMADZU CORPORATION), each of the following reaction solutions was prepared in a scale of 50 μL. Transdirect insect cell is a cell-free protein synthesis reaction solution containing an extract from Sf21, and contains a potassium salt, a magnesium salt, adenosine triphosphate, guanosine triphosphate, creatine phosphate, creatine kinase, an amino acid component, a tRNA, a foreign mRNA, and a buffer as ingredients other than the extract derived from Sf21.
As the RNase inhibitor, an RNase inhibitor derived from a human placenta (TAKARA BIO) was used, and as the pAp, Adenosine 3′,5′-diphosphate sodium salt (SIGMA-ALDRICH) was used, and prepared as an aqueous solution of 100 mM. Each reaction solution was subjected to a translation reaction at 25° C.
For each reaction solution, reaction solutions after 0, 60, and 120 minutes from starting of a translation reaction were recovered. 10 μL of the recovered reaction solution was collected into 20 μL of TRIzol LS Reagent (Invitrogen), and the whole RNA was extracted. The extracted RNA was dissolved in 10 μL of pure water.
To each solution of extracted RNA, 4 μL of a loading buffer (Wako Pure Chemical Industries) was added, and the total was subjected to electrophoresis (a TAE buffer, 1% agarose gel). The RNA separated by electrophoresis was detected by EtBr (ethidium bromide) staining.
By the same steps as Steps 1 to 3 of Example 1, a translation reaction was conducted for the following reaction solutions.
As for Reaction Solution 6, pAp was added before the reaction so that the final concentration was 5 mM, and after 60 minutes from starting of the reaction, 2.5 μL of a 100 mM pAp aqueous solution prepared in step 3 was added. As a result, the pAp concentration of supplemented pAp excluding the pAp that was present from the initial stage of the reaction was 5 mM.
Steps 4 and 5 as same as those in Example 1 were conducted except that for each reaction solution, the reaction solution was recovered after 0, 120, 180, and 240 minutes from starting of the translation reaction.
In Reaction Solutions 7 and 8, a 4M aqueous LiCl solution was prepared for stock, and using the stock solution, the final concentration in the reaction solution was adjusted to 50 mM.
Steps 4 and 5 were conducted in the same manner as in Example 1 except that for each reaction solution, the reaction solution was recovered after 0, 180, and 240 minutes from starting of the translation reaction.

Molecule: [Cl-].[Li+] [LiCl, lithium chloride]
- mRNA remaining (electrophoresis) (LiCl 50 mM alone, no pAp (lane 7), after 180 minutes): almost all the mRNA was degraded

Molecule: Nc1ncnc2c1ncn2[C@@H]1O[C@H](COP(=O)(O)O)[C@@H](OP(=O)(O)O)[C@H]1O [pAp, adenosine 3′,5′-bisphosphate]
- degradation suppressing effect (5 mM pAp plus supplementation of 5 mM pAp after 60 minutes (Reaction Solution 6)): sustained
- RNA degradation suppressing effect (5 mM pAp, supplementation not conducted (Reaction Solution 4), after 180 minutes): lost with time
- degradation suppressing effect (10 mM pAp, supplementation not conducted (Reaction Solution 5)): sustained
- mRNA remaining (electrophoresis) (pAp 5 mM alone, no LiCl (lane 4), after 180 minutes): almost all the mRNA was degraded
- mRNA degradation suppressing effect (pAp final concentration 5 mM, no RNase inhibitor (Reaction Solution 4), reaction times 60 and 120 minutes, 25° C.): apparent degradation suppressing effect

B1: RNase inhibitor: RNase inhibitor derived from a human placenta (TAKARA BIO) (protein, UniProt P13489 2-461, looked up)
Ribonuclease inhibitor: SLDIQSLDIQCEELSDARWAELLPLLQQCQVVRLDDCGLTEARCKDISSALRVNPALAELNLRSNELGDVGVHCVLQGLQTPSCKIQKLSLQNCCLTGAGCGVLSSTLRTLPTLQELHLSDNLLGDAGLQLLCEGLLDPQCRLEKLQLEYCSLSAASCEPLASVLRAKPDFKELTVSNNDINEAGVRVLCQGLKDSPCQLEALKLESCGVTSDNCRDLCGIVASKASLRELALGSNKLGDVGMAELCPGLLHPSSRLRTLWIWECGITAKGCGDLCRVLRAKESLKELSLAGNELGDEGARLLCETLLEPGCQLESLWVKSCSFTAACCSHFSSVLAQNRFLLELQISNNRLEDAGVRELCQGLGQPGSVLRVLWLADCDVSDSSCSSLAATLLANHSLRELDLSNNCLGDAGILQLVESVRQPGCLLEQLVLYDIYWSEEMEDRLQALEKDKPSLRVIS
- mRNA degradation suppressing effect (RNase inhibitor final concentration 1 U/μL, no pAp (Reaction Solution 3 vs Reaction Solution 2), 0, 60, 120 minutes): not observed

From patent US20090155881A1, “CELL-FREE PROTEIN SYNTHESIS METHOD AND CELL-FREE PROTEIN SYNTHESIS REACTION SOLUTION USING ADENOSINE 3',5'-BISPHOSPHATE” (priority 2007, published 2009)
